“Also recorded” adds a separate entry of the source. Where no end group is shown, it is not given here. [ ]: non-standard residue; d: D form.
Columns and labels:
[1] = system: CAL 27 (high EGFR) and SCC-15 (low EGFR) oral cancer cells; test: Fluorescence microscopy of DY547-siCIP2A uptake in co-culture of high- and low-EGFR oral cancer cells; type: cell-based, human; conditions: co-culture CAL 27 and SCC-15, 4 hours, 100 nM D-siCIP2A
Procedure: (§1) Fluorescence microscopy analysis was performed after co-culture of CAL 27 (high EGFR) and SCC-15 (low EGFR) oral cancer cells incubated for 4 hours with 100 nM of DY547-conjugated siRNA targeting CIP2A (D-siCIP2A; red) in complex with GE11R9 peptide at 100:1 and 60:1 (GE11R9:siRNA) molar ratios. SCC-15 cells were stained for vimentin (green) and nuclei (blue) were counterstained with DAPI.
as §1, with “of the” for “was performed after”, “and 599 peptides” for “peptide”, “various” for “100:1 and 60:1 (GE11R9:siRNA)”, “ratios (FIGS. 3A & 3B).” for “ratios.”, “DAPI” for “DAPI.”

CIP2A = test: Western blot analysis of CIP2A protein expression levels in CAL 27 OSCC cells; type: cell-based, human; conditions: CAL 27 cells, 48 hours post-treatment, 100 nM siCIP2A vs siNT
Procedure: Western blot analysis of CIP2A protein expression levels in CAL 27 OSCC cells was performed 48 hours post-treatment with GE11R9 peptide complexed to either 100 nM of siNT or siCIP2A at a 60:1 or 100:1 peptide-to-siRNA molar ratio compared to 599 peptide at a 50:1 molar ratio. β-Actin protein levels were monitored to ensure equal loading of samples.
FIG. 4 is a Western blot analysis of CIP2A protein expression levels in CAL 27 OSCC cells performed 48 hours post-treatment with dual peptide complexed to either 100 nM of siNT or siCIP2A at various GE11R9:599:siRNA molar ratios. β-Actin protein levels were monitored to ensure equal loading of samples.

## GE11R9: EGFR-targeting peptide: GE11 sequence modified with a nona(D-arginine) stretch (R9) and a C-terminal Lysine (YHWYGYTPQNVIGGGG[dR][dR][dR][dR][dR][dR][dR][dR][dR]K)
[1]
  targeting / specific uptake of siRNA into high-EGFR versus low-EGFR cells: deliver siRNAs specifically to EGFR-overexpressing oral cancer cells; also recorded: specifically targets
CIP2A
  delivery of bioactive siRNA (siCIP2A functionality, CIP2A protein expression): not capable of mediating the delivery of bioactive siRNAs; also recorded: does not deliver bioactive siRNAs; also recorded: not able to mediate the delivery of bioactive siRNAs

From patent publication US20160271258A1, “Dual Peptide-Mediated Targeted Delivery System” (MUSC FOUNDATION FOR RESEARCH DEVELOPMENT, priority 2015, published 2016)
